# pEC50, pIC50: −log10 of the molar value. Like-named read-outs stand apart in the source and are kept apart here.
# Test system: lymphoma cell line DB
# Test: Serial dilutions: fixed ABT-199 concentration with Compound A titration, six-day cell proliferation
# Format: cell-based
# Conditions: for pEC50 / pIC50: 144 h
# Procedure: Serial dilutions were performed for the combination to ascertain the change in gIC50, gIC100 and dEC50 when the inhibitors are used together in a PRMT5 inhibitor cell proliferation. A first compound plate was prepared where PRMT5 inhibitor, Compound A, was prepared with a 20-point, two-fold dilution series of compound A from column 1 to 20. A second compound plate was prepared using the BCL-2 inhibitor ABT-199. ABT-199 was titrated in a 16-point 2-fold dilution series from row A to Q. A third plate was then created by added equal volume of 12 ul (ABT-199) from each well in the second plate into the corresponding well in the first plate. The third plate comprised rows from A to Q, each row comprising a fixed concentration of ABT-199. Columns 1-20 comprised varying concentrations of compound A from the 20-point dilution. Plates were incubated for six days at the conditions described above. Lymphoma cell line DB was treated with the solution in each of the wells. Cell growth was measured using CellTiter-Glo (Promega) and luminescence signal was detected with a BioTek Synergy Neo microplate reader. A plate of untreated cells was read at the time of compound/biologic addition to determine the T0 value representing the starting number of cells. Data were fit with a four-parameter equation to generate a concentration response curve for each row using Assay Client software. A comparison was made across each row in the third plate to determine, when keeping a fixed concentration of ABT-199, what concentration of compound A is needed to reach the gIC50, gIC100 or dEC50 respectively and the fold change compared to treating the same cell with compound A alone.
# Tables 4a-c show the results of the above serial dilution experiments wherein ‘fold change’ is the difference between the amount of compound A needed to achieve gIC50, gIC100 or dEC50 respectively, compared to the amount of compound A needed to achieve gIC50, gIC100 or dEC50 respectively when compound A is given as a single agent.
smiles,measurement,setting,value
O=C(NC[C@H](O)CN1CCc2ccccc2C1)c1ccnc(NC2CCC2)c1 [Compound A],pEC50,"single agent, six days, read-out: dEC50",< 5.13
same,pIC50,"single agent, six days, read-out: gIC50",6.20
same,pEC50,"with fixed ABT-199 1 nM, six days, read-out: Compound A required for dEC50",< 5.13
same,pIC50,"with fixed ABT-199 1 nM, six days, read-out: compound A required for gIC50",6.35
same,pEC50,"with fixed ABT-199 2 nM, six days, read-out: Compound A required for dEC50",< 5.13
same,pIC50,"with fixed ABT-199 2 nM, six days, read-out: compound A required for gIC50",6.29
same,pEC50,"with fixed ABT-199 4 nM, six days, read-out: Compound A required for dEC50",< 5.13
same,pIC50,"with fixed ABT-199 4 nM, six days, read-out: compound A required for gIC50",6.29
same,pEC50,"with fixed ABT-199 7 nM, six days, read-out: Compound A required for dEC50",< 5.13
same,pIC50,"with fixed ABT-199 7 nM, six days, read-out: compound A required for gIC50",6.35
same,pEC50,"with fixed ABT-199 14 nM, six days, read-out: Compound A required for dEC50",< 5.13
same,pIC50,"with fixed ABT-199 14 nM, six days, read-out: compound A required for gIC50",6.41
same,pEC50,"with fixed ABT-199 29 nM, six days, read-out: Compound A required for dEC50",< 5.13
same,pIC50,"with fixed ABT-199 29 nM, six days, read-out: compound A required for gIC50",6.45
same,pEC50,"with fixed ABT-199 57 nM, six days, read-out: Compound A required for dEC50",5.27
same,pIC50,"with fixed ABT-199 57 nM, six days, read-out: compound A required for gIC50",6.61
same,pEC50,"with fixed ABT-199 115 nM, six days, read-out: Compound A required for dEC50",5.33
same,pIC50,"with fixed ABT-199 115 nM, six days, read-out: compound A required for gIC50",6.68
same,pEC50,"with fixed ABT-199 229 nM, six days, read-out: Compound A required for dEC50",5.33
same,pIC50,"with fixed ABT-199 229 nM, six days, read-out: compound A required for gIC50",6.94
same,pEC50,"with fixed ABT-199 458 nM, six days, read-out: Compound A required for dEC50",5.41
same,pIC50,"with fixed ABT-199 458 nM, six days, read-out: compound A required for gIC50",6.92
same,pEC50,"with fixed ABT-199 916 nM, six days, read-out: Compound A required for dEC50",5.60
same,pIC50,"with fixed ABT-199 916 nM, six days, read-out: compound A required for gIC50",7.11
same,pEC50,"with fixed ABT-199 1833 nM, six days, read-out: Compound A required for dEC50",5.62
same,pIC50,"with fixed ABT-199 1833 nM, six days, read-out: compound A required for gIC50",7.13
same,pEC50,"with fixed ABT-199 3666 nM, six days, read-out: Compound A required for dEC50",5.65
same,pIC50,"with fixed ABT-199 3666 nM, six days, read-out: compound A required for gIC50",7.10
same,pEC50,"with fixed ABT-199 7331 nM, six days, read-out: Compound A required for dEC50",5.64
same,pIC50,"with fixed ABT-199 7331 nM, six days, read-out: compound A required for gIC50",7.82
same,"Fold change over compound A single agent gIC50 (631 nM, most potent of the two agents)",single agent,1.0
same,"Fold change over compound A single agent gIC100 (6489 nM, most potent of the two agents)",single agent,1.0
same,gIC100,"single agent, six days",6.489 µM
same,"Fold change over compound A single agent gIC50 (631 nM, most potent of the two agents)",with fixed ABT-199 1 nM,1.4
same,"Fold change over compound A single agent gIC100 (6489 nM, most potent of the two agents)",with fixed ABT-199 1 nM,0.9
same,compound A required for gIC100,"with fixed ABT-199 1 nM, six days",7.331 µM
same,"Fold change over compound A single agent gIC50 (631 nM, most potent of the two agents)",with fixed ABT-199 2 nM,1.2
same,"Fold change over compound A single agent gIC100 (6489 nM, most potent of the two agents)",with fixed ABT-199 2 nM,0.9
same,compound A required for gIC100,"with fixed ABT-199 2 nM, six days",7.331 µM
same,"Fold change over compound A single agent gIC50 (631 nM, most potent of the two agents)",with fixed ABT-199 4 nM,1.2
same,"Fold change over compound A single agent gIC100 (6489 nM, most potent of the two agents)",with fixed ABT-199 4 nM,0.9
same,compound A required for gIC100,"with fixed ABT-199 4 nM, six days",6.989 µM
same,"Fold change over compound A single agent gIC50 (631 nM, most potent of the two agents)",with fixed ABT-199 7 nM,1.4

# From patent US20210386738A1, “COMBINATION OF PRMT5 INHIBITORS AND BCL-2 INHIBITORS” (GLAXOSMITHKLINE INTELLECTUAL PROPERTY DEVELOPMENT LIMITED, priority 2018, published 2021)
